“Also recorded” adds a separate entry of the source.
Legend:
Type in all cases: cell-based, human
[1] = test system: DEVDase activity (Caspase 3) in U937 cell line; assay: DEVDase activity in U937 cell line
Experimental: Suspension cells were seeded at density 3.2×10^5 cells per mL in RPMI-1640 medium (Bio-Whittaker) supplemented with 10% heat inactivated FBS (Bio-Whittaker). Cells were pre-incubated overnight prior to treatment with the ether lipid compounds of the invention. At treatment time cell density was 5×10^5 cells per mL. Cells were incubated with the ether lipid compounds of the invention for various periods of time, usually 6 hours. Cells were collected, washed with 1×DPBS and resuspended in 110 μl of Buffer A (10 mM BEPES-KOH, pH 7.4, 2 mM EDTA, 0.1% CHAPS, 5 mM DTT, 1:100 dilution of protease inhibitors cocktail (Sigma)-DTT and protease inhibitors should be added just before use). […]
Measurement of DEVDase activity was carried out in 100 μl volume, where 10 μg of protein was delivered in 50 μl of Buffer A and 40 μM of substrate Ac-DEVD-AMC was also delivered in 50 μl of Buffer A. All measurements were done in triplicates. Reaction was carried out for 1 hour and generation of fluorescent product of reaction (aminomethylcoumarin) was measured by reading fluorescence at 1em 460 nm (1ex 360 nm). Changes in DEVDase activity were calculated after subtraction of background fluorescence of substrate incubated without proteins, and were expressed as percent of control (DEVDase activity in untreated cells). […]

OVCAR-4 = assay: NCI growth inhibition screen, ovarian panel; parameters: key to Performance as compared to ET-18-O—CH3: = means equivalent activity; + means that it appears to be significantly better (i.e., by ˜2x); < means it appears to be less active than ET18OCH3 (˜2x); a combination like =/+ or </+ means that activity is dependent upon the isomer; a combination like =/+ or </+ means that activity is dependent upon the isomer; details: for activity compared to both ET-18-OCH3 isomers (in words): OVCAR-4, NCI screen; for Performance as compared to ET-18-O—CH3: OVCAR-4, Ovarian, from GI50s
Experimental: (§1) Candidates deemed suitable for in vivo testing were then synthesized in large scale quantities and some of this material was sent to the NCI's Developmental Therapeutics Program for a battery of growth inhibitory studies against various human tumor cell lines (60 cell lines, 9 different panels). The remainder of the material was used to assess in vivo efficacy using murine tumor models. Additionally, studies were conducted on the lead candidates to discern mechanism of action with particular emphasis on these agents apoptotic ability as measured by caspase 3 activity. The details (materials and methods) for these various assays are described further in the following discussion.
(§2) Ten compounds were also sent to NCI's Drug Discovery Program for screening against numerous human tumor cell lines (9 panels total: renal ovarian, colon, CNS, non-small cell lung, leukemia, breast, melanoma, and prostate). The data are shown in FIGS. 2a-i which also include data regarding D- and L-ET-18-OCH3 (listed as L-EL and D-EL in the figures). Upon examining the data, one is struck by how 1R and 1a′S standout in comparison to the other compounds, especially for the renal, ovarian, colon, and CNS panels.

OVCAR-5 = assay: NCI growth inhibition screen, ovarian panel; parameters: key to Performance as compared to ET-18-O—CH3: = means equivalent activity; + means that it appears to be significantly better (i.e., by ˜2x); < means it appears to be less active than ET18OCH3 (˜2x); a combination like =/+ or </+ means that activity is dependent upon the isomer; a combination like =/+ or </+ means that activity is dependent upon the isomer; details: for activity compared to both ET-18-OCH3 isomers (in words): OVCAR-5, NCI screen; for Performance as compared to ET-18-O—CH3: OVCAR-5, Ovarian, from GI50s
Experimental: as §1, §2

SK-MEL-28 = assay: NCI growth inhibition screen, melanoma panel; parameters: key: = means equivalent activity; + means that it appears to be significantly better (i.e., by ˜2x); < means it appears to be less active than ET18OCH3 (˜2x); a combination like =/+ or </+ means that activity is dependent upon the isomer; a combination like =/+ or </+ means that activity is dependent upon the isomer; details: SK-MEL-28, Melanoma; from GI50s
Experimental: as §1, §2

UACC-257 = assay: NCI growth inhibition screen, melanoma panel; parameters: key: = means equivalent activity; + means that it appears to be significantly better (i.e., by ˜2x); < means it appears to be less active than ET18OCH3 (˜2x); a combination like =/+ or </+ means that activity is dependent upon the isomer; a combination like =/+ or </+ means that activity is dependent upon the isomer; details: UACC-257, Melanoma; from GI50s
Experimental: as §1, §2

BT-549 = assay: NCI growth inhibition screen, breast panel; parameters: key to Performance as compared to ET-18-O—CH3: = means equivalent activity; + means that it appears to be significantly better (i.e., by ˜2x); < means it appears to be less active than ET18OCH3 (˜2x); a combination like =/+ or </+ means that activity is dependent upon the isomer; a combination like =/+ or </+ means that activity is dependent upon the isomer; details: for Performance as compared to ET-18-O—CH3: BT-549, Breast, from GI50s; for activity compared to ET-18-OCH3 (in words): BT-549 cell line, NCI screen
Experimental: as §1, §2

MCF-7 = assay: NCI growth inhibition screen, breast panel; parameters: key to Performance as compared to ET-18-O—CH3: = means equivalent activity; + means that it appears to be significantly better (i.e., by ˜2x); < means it appears to be less active than ET18OCH3 (˜2x); a combination like =/+ or </+ means that activity is dependent upon the isomer; a combination like =/+ or </+ means that activity is dependent upon the isomer; details: for Performance as compared to ET-18-O—CH3: MCF-7, Breast, from GI50s; for activity compared to ET-18-OCH3 (in words): MCF-7 cell line, NCI screen
Experimental: as §1, §2

T-47D = assay: NCI growth inhibition screen, breast panel; parameters: key to Performance as compared to ET-18-O—CH3: = means equivalent activity; + means that it appears to be significantly better (i.e., by ˜2x); < means it appears to be less active than ET18OCH3 (˜2x); a combination like =/+ or </+ means that activity is dependent upon the isomer; a combination like =/+ or </+ means that activity is dependent upon the isomer; details: for Performance as compared to ET-18-O—CH3: T-47D, Breast, from GI50s; for GI50: breast cancer cell line T-47D, NCI screen
Experimental: as §1, §2

## CCCCCCCCCCCCCCCCCCOC[C@@H](COP(=O)([O-])OCC[N+](C)(C)C)OS(C)(=O)=O [1a′S]
[1]
  DEVDase activity compared to ET-18-OCH3 (in words): equivalent to ET-18-OCH3; also recorded: more active than 1aR
OVCAR-4
  activity compared to both ET-18-OCH3 isomers (in words): significantly better activity
  Performance as compared to ET-18-O—CH3: 2048
OVCAR-5
  activity compared to both ET-18-OCH3 isomers (in words): significantly better activity
  Performance as compared to ET-18-O—CH3: 4096
SK-MEL-28
  Performance as compared to ET-18-O—CH3: </=
UACC-257
  Performance as compared to ET-18-O—CH3: 0
BT-549
  Performance as compared to ET-18-O—CH3: 0
  activity compared to ET-18-OCH3 (in words): more active than ET-18-OCH3
MCF-7
  Performance as compared to ET-18-O—CH3: 128
  activity compared to ET-18-OCH3 (in words): more active than ET-18-OCH3
T-47D
  Performance as compared to ET-18-O—CH3: <
  GI50: ≥ 15 µM

## CCCCCCCCCCCCCCCCCCOCC(COP(=O)([O-])OCC[N+](C)(C)C)OS(C)(=O)=O (centres unmarked) [Compound 1aR]
[1]
  DEVDase activity compared to ET-18-OCH3 (in words): equivalent to ET-18-OCH3
OVCAR-4
  activity compared to both ET-18-OCH3 isomers (in words): significantly better activity
  Performance as compared to ET-18-O—CH3: +
OVCAR-5
  activity compared to both ET-18-OCH3 isomers (in words): significantly better activity
  Performance as compared to ET-18-O—CH3: +
SK-MEL-28
  Performance as compared to ET-18-O—CH3: =/+
UACC-257
  Performance as compared to ET-18-O—CH3: =
BT-549
  Performance as compared to ET-18-O—CH3: +
  activity compared to ET-18-OCH3 (in words): more active than ET-18-OCH3
MCF-7
  Performance as compared to ET-18-O—CH3: +
  activity compared to ET-18-OCH3 (in words): more active than ET-18-OCH3
T-47D
  Performance as compared to ET-18-O—CH3: +
  GI50: < 2.5 µM

Reference: patent US20060122153A1, “Antineoplastic ether lipid compounds with modifications at the sn-2 carbon” (priority 2003, published 2006)
